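Cultured in 96-well plates, cells were exposed to test compound for 48 hours across five concentrations. The concentration for 50% growth inhibition is given as GI50. The concentration for full growth arrest is given as TGI.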
Assays:
Assay in all cases: inhibition of tumour cell growth, NCI panel, 48 h
[1] = tested on: HS 578T breast
[2] = tested on: M14 melanoma
[3] = tested on: NCI-H226 lung
[4] = tested on: NCI-H23 lung
[5] = tested on: NCI-H460 lung
[6] = tested on: RPMI-8226 leukemia
[7] = tested on: RXF 393 renal
[8] = tested on: SNB-75 CNS
[9] = tested on: SF-539 CNS
[10] = tested on: SR leukemia

Compound	TGI [1]	TGI [2]	TGI [3]	TGI [4]	TGI [5]	TGI [6]	TGI [7]	TGI [8]	TGI [9]	TGI [10]	GI50 [1]	GI50 [2]	GI50 [3]	GI50 [4]	GI50 [5]	GI50 [7]	GI50 [9]	GI50 [8]	GI50 [6]
CCOc1cc(C=O)c2c(ccc3ccc(OC)c(OC)c32)c1OC	> 100 µM	> 100 µM	> 100 µM	> 100 µM	> 100 µM	> 100 µM	> 100 µM	> 100 µM											
O=c1c2cc(Br)ccc2[nH]c(=S)n1-c1ccc(Br)cc1			> 100 µM	> 100 µM	> 100 µM	> 100 µM	> 100 µM	41 µM	> 100 µM	> 100 µM									
Cn1c(=O)nc2n(-c3ccc(F)cc3)c3ccccc3nc-2c1=O		67.3 µM	> 100 µM	42.8 µM	80.7 µM	70.9 µM	79.8 µM	91.6 µM	46.5 µM										
O=C(CCc1nnc2s/c(=C\c3ccc4c(c3)OCO4)c(=O)n12)Nc1cc(Cl)ccc1Cl		> 100 µM	> 100 µM	> 100 µM	> 100 µM	> 100 µM	> 100 µM	> 100 µM	> 100 µM	> 100 µM									
Cc1cc2cc(Cl)ccc2nc1C(=O)c1ccccc1		> 100 µM	> 100 µM	> 100 µM		> 100 µM	> 100 µM	81.9 µM	> 100 µM	> 100 µM									
O=C1C(c2ccc([N+](=O)[O-])cc2)=[N+]([O-])c2ccccc21		> 100 µM	> 100 µM	63.4 µM	> 100 µM	> 100 µM	60.4 µM	69 µM	> 100 µM	62.3 µM									
COc1cc(C2c3cc4c(cc3[C@H](NC(=O)c3cccs3)C3COC(=O)[C@H]23)OCO4)cc(OC)c1OC (some centres undefined)		33.7 µM			10.8 µM	19.3 µM	0.0543 µM	> 100 µM	< 0.0141 µM	17.7 µM									
COc1ccc(C(=O)/C(=N/Nc2ccccc2)c2ccc(OC)cc2)cc1			> 100 µM	> 100 µM	> 100 µM	> 100 µM	> 100 µM	> 100 µM	> 100 µM										
C[N+](C)(C)CCC(=O)N1C/C(=C\c2ccccc2)C(=O)/C(=C/c2ccccc2)C1	21.2 µM	7.54 µM	20 µM	23.3 µM	22.4 µM	2.3 µM	28.3 µM	24.3 µM	11.8 µM										
[N-]=[N+]=Nc1ccccc1-[n+]1noc([O-])c1Br		> 100 µM	> 100 µM	> 100 µM	> 100 µM	> 100 µM	> 100 µM	> 100 µM	> 100 µM	> 100 µM									
COCC1C(=O)c2cc3c(cc2C12C=CC1(C=C2)OCCO1)OCO3 (centres undefined)		12.6 µM	22.8 µM	26.9 µM	31.9 µM	4.1 µM	20.9 µM	28.9 µM	29.3 µM	6.8 µM									
CN(C)c1ccccc1CC(c1c[nH]c2ccccc12)c1c[nH]c2ccccc12		24 µM	25.7 µM	21.3 µM	16 µM		20.2 µM	22 µM	31 µM	21.6 µM									
N#Cc1ccc(/C=N\N2C(=O)c3ccccc3C2=O)cc1		> 100 µM	> 100 µM	> 100 µM	> 100 µM	> 100 µM	> 100 µM	> 100 µM	> 100 µM	> 100 µM									
COc1ccc2nc3cc(Cl)ccc3c(NCCC(=O)OCC(O)C(O)C(O[C@H](C)C(=O)NC(C)C(=O)NC(CCC(N)=O)C(=O)OCc3ccccc3)C(C=O)NC(C)=O)c2c1 (some centres undefined)		35.5 µM	37.8 µM	27.5 µM	30.4 µM			31.7 µM	37.1 µM	23.6 µM									
COC(=O)CCC(=O)CC(=O)C(=O)Nc1ccc(F)cc1		> 100 µM	> 100 µM	> 100 µM	> 100 µM	> 100 µM	> 100 µM	> 100 µM	> 100 µM										
CCCCCCCCCCCCOC1C(CNC(=O)C2OC3OC(C)(C)OC3C2NC(=O)CN2CCN(c3ccccn3)CC2)OC2OC(C)(C)OC21 (centres undefined)	4.69 µM	3.1 µM	3.72 µM	9.1 µM	3.38 µM		2.74 µM	6.77 µM	3.44 µM	1.86 µM	1.9 µM	1.68 µM	1.82 µM	4.16 µM	1.77 µM	1.36 µM	1.93 µM	2.31 µM	
Nc1nc(=O)n(C2CC(O)C(O)C(CO)O2)cc1F (centres undefined)		> 100 µM	> 100 µM	> 100 µM	> 100 µM	> 100 µM	> 100 µM	> 100 µM	> 100 µM										
O=c1oc2c3ccc4ccccc4c3n(CCN3CCOCC3)c2c2ccccc12		> 100 µM			> 100 µM	> 100 µM		> 100 µM	> 100 µM	58.3 µM									
COc1c(OC(C)=O)c(OC(C)=O)cc2c1-c1ccc(OC)c(=O)cc1C(NC(C)=O)CC2 (centres undefined)	> 100 µM	> 100 µM	1.09 µM	5.24 µM	13.1 µM	> 100 µM			0.173 µM	> 100 µM									
O=C(O)CN(CC(=O)O)Cc1cc2c(cc1O)Oc1cc(O)c(CN(CC(=O)O)CC(=O)O)cc1C21OC(=O)c2ccccc21	> 100 µM	> 100 µM	> 100 µM	> 100 µM		> 100 µM		> 100 µM	> 100 µM	> 100 µM									
CC(C)(C)C(=O)OCOP(=O)(OCOC(=O)C(C)(C)C)C1CCCN(OC(=O)c2ccccc2)C1=O (centres undefined)	38.1 µM	16.5 µM	19.5 µM	9.74 µM	15.3 µM	3.51 µM	4.8 µM	93.1 µM	18.9 µM		0.71 µM	2.3 µM	1.34 µM	1.51 µM	1.11 µM	0.545 µM	3.72 µM	5.1 µM	0.605 µM
COc1ccc(Nc2c3c4c(cccc4[nH]c2=O)C(=O)c2ccccc2-3)cc1	> 45.9 µM	> 100 µM	> 100 µM	> 38.9 µM	10.1 µM		> 100 µM	> 72.1 µM	0.0687 µM		0.0238 µM	< 0.0192 µM	1.2 µM	< 0.0185 µM	< 0.01 µM	0.0472 µM	0.0206 µM	0.0278 µM	
